Laboratory results taken from US10278965B2, “Method of detecting cancer stem cell, method of screening cancer stem cell, and method of inhibiting cancer stem cell” (CANON KABUSHIKI KAISHA, priority 2012, dated 2019).

Legend:
[1] = Measurement of fluorescent property of compound; type: physicochemical; conditions: 5 μM DMSO solution
Description: The excitation wavelength and fluorescence wavelength of the compound were measured by a FL4500 spectrofluorometric measuring machine manufactured by Hitachi High-Technologies Corporation.

[2] = test system: Prostatic cancer cells, PC-3; experiment: Cancer cell inhibitory (growth suppressive) action against prostatic cancer cells, CellTiter-Glo viable cell count; type: cell-based; conditions: PC-3, 10 μg/mL, 24 hours
Description: Prostatic cancer cells, PC-3, were pre-cultured in RPMI1640 medium containing 10% FBS at 37° C. in a 5% CO2 ambient. Thereafter, 4,000 cells were seeded per well of a 96-well plate and further cultured for 24 hours. Subsequently, Compound (1) was added to the medium so as to obtain a final concentration of 10 μg/mL and cultured at 37° C. for 24 hours in a 5% CO2 ambient. The cultured cells were analyzed for viable cell count according to Cell Titer-Glo Luminescent Cell Viability Assay (manufactured by Promega KK.).
Viable cell count was analyzed in the same manner as in Experimental Example 24 except that Compound (1) of Experimental Example 24 was changed to each compound shown in Table 2.
Viable cell count was analyzed in the same manner as in Experimental Example 24 except that Compound (1) of Experimental Example 24 was changed to each of Comparative compounds 1 to 4, to obtain growth rates.
Note that the growth rate used in Examples refers to the rate (expressed by percentage) of viable cell count after culture relative to the number of cells at the initiation of cell culture. Evaluation criteria are the same as in the above experiments.

[3] = test system: Human pancreas cancer cells, KLM-1; experiment: Cancer cell inhibitory (growth suppressive) action against pancreatic cancer cells, CellTiter-Glo viable cell count; conditions: KLM-1, 10 μg/mL, 24 hours
Description: Human pancreas cancer cells, KLM-1, were pre-cultured in RPMI1640 medium containing 10% FBS at 37° C. in a 5% CO2 ambient. Thereafter, 4,000 cells were seeded per well of a 96-well plate and further cultured for 24 hours. […] The cultured cells were analyzed for viable cell count according to CellTiter-Glo Luminescent Cell Viability Assay (manufactured by Promega KK.).
Evaluation of cancer cell inhibition against the pancreatic cancer cells (KLM-1) (growth suppression) was made based on the following criteria. Note that the growth rate used in Examples refers to the rate (expressed by percentage) of viable cell count after culture relative to the number of cells at the initiation of cell culture.

[4] = test system: Human chronic myelocytic leukemia cells, K562, ALDH (+) fraction (cancer stem cells); experiment: Cancer stem-cell selective inhibitory action against chronic myelocytic leukemia cells, ALDH (+) fraction; type: cell-based; conditions: 24 hours; for ALDH(+) growth rate / Growth suppression evaluated: K562 ALDH(+), 10 μg/ml
Description: (§1) Human chronic myelocytic leukemia cells, K562, were pre-cultured in RPMI1640 medium containing 10% FBS at 37° C. in a 5% CO2 ambient. Then, a fraction containing 80% or more of cancer stem cells was extracted by use of a cancer stem cell marker, ALDEFLUOR reagent (manufactured by VERITAS Corporation) and FACSAria flow cytometry (manufactured by Nippon Becton, Dickinson and Company). […] The cultured cells were analyzed for viable cell count according to CellTiter-Glo Luminescent Cell Viability Assay (manufactured by Promega KK.). […] Note that hereinafter, an ALDEFLUOR reagent positive fraction (deemed as cancer stem cells) is represented by ALDH (+), whereas an ALDEFLUOR reagent negative fraction (not deemed as cancer stem cells) is represented by ALDH (−), in some cases.
(§2) Further, the growth suppressive effect of cancer stem cells was evaluated based on the following criteria. Note that the growth rate in Examples is a value obtained by dividing viable cell count after culture by the number of cells at the initiation time of culture.

[5] = test system: Human chronic myelocytic leukemia cells, K562, ALDH (−) fraction (general cancer cells); experiment: Cancer stem-cell selective inhibitory action against chronic myelocytic leukemia cells, ALDH (−) fraction; type: cell-based; conditions: K562 ALDH(−), 10 μg/ml, 24 hours
Description: as §1, §2

[6] = test system: KLM1-KOr cells, ALDH (+) fraction, transplanted to zebra young fish; experiment: Cancer metastasis suppressive effect in cancer cell metastatic foci (region within 300 to 450 μm from a transplanted tumor); type: in vivo; conditions: 72 hours later, region within 300 to 450 μm from transplanted tumor; for Inhibition rate 100×(1−F1/F0), metastatic foci: administered to yolk sac 24 hours after transplantation (Compound (26) 745 μmol/KgBW)
Description: From cell strain […], in which KLM1 cells have fluorescent protein Kusabira-Orange constantly expressed, a fraction (ALDH (+)) containing 80% or more of cancer stem cells was extracted with ALDEFLUOR reagent (manufactured by VERITAS Corporation) and FACSAria flow cytometry (manufactured by Nippon Becton, Dickinson and Company). The extracted KLM1-KOr cells were transplanted to zebra young fish (MieKomachi lineage, 2 days after fertilization) and the fish were raised in a 32° C. environment. Furthermore, 24 hours after transplantation, Compound (26) (745 μmol/KgBW) was administered to yolk sac.
72 hours later, cells transplanted to the zebra young fish were observed under MZ16F fluorescent stereoscopic microscope (manufactured by Leica Microsystems) and a fluorescent image of the region within 300 to 450 μm from a transplanted tumor was photographed and then fluorescent intensity was quantified.
As a reference, the fluorescent intensity of cells, which were cultured in the same operation method as above in a medium containing a 0.1% DMSO solution in place of Compound (26), was used.
Fluorescent images were photographed in the same manner as in Experimental Example 26 except that Imatinib and Dasatinib were respectively used in place of the compound (26) in Experimental Example 75.
The inhibition rate herein was obtained according to the expression: 100×(1−F1/F0), where the fluorescent intensity of cells when a test substance was added is represented by F1, and the fluorescent intensity of cells when a reference substance (DMSO) was added is represented by F0.

[7] = test system: K562 ALDH (−) cells; experiment: Cancer stem-cell selective staining, ALDH (−) cells; type: cell-based, Human; conditions: cells of Experimental Examples 39, 42 and 45 (1 μg/ml, cultured for 24 hours), fluorescent microscope
Description: (§3) The cells cultured for 24 hours in each of Experimental Examples 39, 42 and 45 were subjected to nuclear staining with Hoechest33342 (manufactured by Dojindo Laboratories) and a fluorescent image observed under AXIOVERT200M inverted fluorescent microscope (manufactured by Carl Zeiss) was photographed.

[8] = test system: K562 ALDH (+) cells; experiment: Cancer stem-cell selective staining, ALDH (+) cells; type: cell-based, Human; conditions: cells of Experimental Examples 39, 42 and 45 (1 μg/ml, cultured for 24 hours), fluorescent microscope
Description: as §3

Row | SMILES | Excitation wavelength λex [1] [nm] | Fluorescence wavelength λem [1] [nm] | Cancer cell growth rate (%) [2] [%] | Evaluation (cancer cell growth rate) [2] | Cancer cell growth rate (%) [3] [%] | Evaluation (cancer cell growth rate) [3] | ALDH(+) Superiority evaluation ([4]; K562, 10 μg/ml) | ALDH(+)/ALDH(−) ([4]; K562, 10 μg/ml) | ALDH(−) growth rate [5] | ALDH(+) growth rate [4] | Growth suppression evaluated [4] | other results
1 | CCN1/C(=C\C=C\c2sc3ccccc3[n+]2CC)Sc2ccccc21 [Compound 1] | 485 | 575 | 13.8 | A (Cancer cell growth rate is less than 20%) | 31.9 | B (Cancer cell growth rate is 20% or more and less than 50%) | B (The value of the growth rate of ALDH (+)/the growth rate of ALDH (−) is 0.8 or more and less than 0.95) | 0.87 |  |  |  | 
2 | CCN1/C(=C\C(C)=C\c2sc3ccccc3[n+]2CC)Sc2ccccc21 [Compound 5] | 560 | 628 | 15.0 | A (Cancer cell growth rate is less than 20%) | 6.4 | A (Cancer cell growth rate is less than 20%) | A (The value of the growth rate of ALDH (+)/the growth rate of ALDH (−) is less than 0.8) | 0.79 |  |  |  | 
3 | CCN1/C(=C\C=C\c2oc3ccccc3[n+]2CC)Oc2ccccc21 [Compound 14] | 491 | 510 |  |  |  |  | A (The value of the growth rate of ALDH (+)/the growth rate of ALDH (−) is less than 0.8) | 0.77 | 0.49 | 0.38 | A (The growth rate of ALDH (+) is less than 0.5) | 
4 | CCN1/C(=C\C=C\C2=[N+](CC)c3ccccc3C2(C)C)C(C)(C)c2ccccc21.[I-] [Compound 22] | 553 | 570 |  |  |  |  | A (The value of the growth rate of ALDH (+)/the growth rate of ALDH (−) is less than 0.8) | 0.75 | 0.29 | 0.22 | A (The growth rate of ALDH (+) is less than 0.5) | 
5 | CN1\C(=C/C=C/C=C/C2=[N+](C)c3ccc4ccccc4c3C2(C)C)C(C)(C)c2c1ccc1ccccc21 [Compound 26] | 684 | 710 |  |  | 8.6 | A (Cancer cell growth rate is less than 20%) |  |  |  |  |  | Inhibition rate 100×(1−F1/F0), metastatic foci [6]: 80; Evaluation (inhibition rate, metastatic foci) [6]: A (Inhibition rate is 70 or more)
6 | CCCN1\C(=C/C=C/C=C/C2=[N+](CCC)c3ccccc3C2(C)C)C(C)(C)c2ccccc21 [Compound 27] | 650 | 675 | 7.7 | A (Cancer cell growth rate is less than 20%) | 6.0 | A (Cancer cell growth rate is less than 20%) | A (The value of the growth rate of ALDH (+)/the growth rate of ALDH (−) is less than 0.8) | 0.56 |  |  |  | 
7 | CCN1/C(=C/C=C/C=C/C=C/c2oc3ccccc3[n+]2CC)Oc2ccccc21 [Compound 33] |  |  |  |  |  |  | B (The value of the growth rate of ALDH (+)/the growth rate of ALDH (−) is 0.8 or more and less than 0.95) | 0.84 | 1.00 | 0.83 | B (The growth rate of ALDH (+) is 0.5 or more and less than 0.95) | 
8 | CCN1C=C/C(=C/C=C/c2sc3ccccc3[n+]2CC)c2ccccc21.[I-] [Compound 34] | 638 | 661 |  |  | 26.6 | B (Cancer cell growth rate is 20% or more and less than 50%) | A (The value of the growth rate of ALDH (+)/the growth rate of ALDH (−) is less than 0.8) | 0.72 | 0.67 | 0.48 | A (The growth rate of ALDH (+) is less than 0.5) | 
9 | CCN1C=C/C(=C/C=C/c2oc3ccccc3[n+]2CC)c2ccccc21 [Compound 35] | 571 | 620 |  |  | 29.7 | B (Cancer cell growth rate is 20% or more and less than 50%) | A (The value of the growth rate of ALDH (+)/the growth rate of ALDH (−) is less than 0.8) | 0.69 |  |  |  | ratio of ALDH (−) cells stained [7]: 21.4%; ratio of ALDH (+) cells stained [8]: 82.5%; ALDH(+) Superiority evaluation ([4]; K562, 0.05 μg/ml): A (The value of the growth rate of ALDH (+)/the growth rate of ALDH (−) is less than 0.8); ALDH(+)/ALDH(−) ([4]; K562, 0.05 μg/ml): 0.77; ALDH(+) Superiority evaluation ([4]; K562, 0.5 μg/ml): A (The value of the growth rate of ALDH (+)/the growth rate of ALDH (−) is less than 0.8); ALDH(+)/ALDH(−) ([4]; K562, 0.5 μg/ml): 0.66; ALDH(+) Superiority evaluation ([4]; K562, 1 μg/ml): B (The value of the growth rate of ALDH (+)/the growth rate of ALDH (−) is 0.8 or more and less than 0.95); ALDH(+)/ALDH(−) ([4]; K562, 1 μg/ml): 0.90
10 | CN1/C(=C/C=C2\CCCC(/C=C/C3=[N+](C)c4ccc5ccccc5c4C3(C)C)=C2Cl)C(C)(C)c2c1ccc1ccccc21 [Compound 49] | 830 | 831 | 5.3 | A (Cancer cell growth rate is less than 20%) | 12.0 | A (Cancer cell growth rate is less than 20%) |  |  |  |  |  | 
11 | CCN1/C(=C/C=C2\CCCC(/C=C/C3=[N+](CC)c4ccc(OC)cc4C34CCCCC4)=C2Oc2ccc(C(c3ccccc3)c3ccccc3)cc2)C2(CCCCC2)c2cc(OC)ccc21 [Compound 58] |  |  |  |  |  |  | B (The value of the growth rate of ALDH (+)/the growth rate of ALDH (−) is 0.8 or more and less than 0.95) | 0.82 | 0.85 | 0.70 | B (The growth rate of ALDH (+) is 0.5 or more and less than 0.95) | 
12 | Cc1nc(Nc2ncc(C(=O)Nc3c(C)cccc3Cl)s2)cc(N2CCN(CCO)CC2)n1 [Dasatinib] |  |  |  |  |  |  |  |  |  |  |  | Inhibition rate 100×(1−F1/F0), metastatic foci [6]: 36; Evaluation (inhibition rate, metastatic foci) [6]: C (Inhibition rate is less than 50)
